Assay results: the NIST ThermoML archive (doi:10.1016/j.jct.2016.06.016)
Numbers after ± are expanded uncertainties.

Experiments:
[1] = xn = mol fraction of the nth substance listed; details: 100 kPa, Liquid, x2 = 0; for viscosity: Concentric cylinders viscometry; for mass density: Vibrating tube method
[2] = refractive index (Na D-line) (dimensionless); xn = mol fraction of the nth substance listed; details: 100 kPa, Liquid, Standard Abbe refractometry, x2 = 0
[3] = 100 kPa, Liquid; for viscosity: Concentric cylinders viscometry; for mass density: Vibrating tube method
[4] = refractive index (Na D-line) (dimensionless); details: 100 kPa, Liquid, Standard Abbe refractometry

CCCCCCO [hexan-1-ol] + CCOC(=O)CCC(=O)OCC
viscosity ([1]; 288.15 K): 6.308 ± 0.058 mPa·s | mass density ([1]; 288.15 K): 822.26 ± 0.83 kg/m3 | viscosity ([1]; 293.15 K): 5.332 ± 0.05 mPa·s | mass density ([1]; 293.15 K): 818.7 ± 0.83 kg/m3 | viscosity ([1]; 298.15 K): 4.538 ± 0.042 mPa·s | mass density ([1]; 298.15 K): 815.12 ± 0.83 kg/m3 | viscosity ([1]; 303.15 K): 3.896 ± 0.037 mPa·s | mass density ([1]; 303.15 K): 811.52 ± 0.83 kg/m3 | viscosity ([1]; 308.15 K): 3.361 ± 0.032 mPa·s | mass density ([1]; 308.15 K): 807.89 ± 0.83 kg/m3 | viscosity ([1]; 313.15 K): 2.917 ± 0.028 mPa·s | mass density ([1]; 313.15 K): 804.25 ± 0.83 kg/m3 | viscosity ([1]; 318.15 K): 2.546 ± 0.024 mPa·s | mass density ([1]; 318.15 K): 800.56 ± 0.83 kg/m3 | viscosity ([1]; 323.15 K): 2.241 ± 0.022 mPa·s | mass density ([1]; 323.15 K): 796.85 ± 0.83 kg/m3 | refractive index ([2]; 288.15 K): 1.4196 ± 0.0014 | refractive index ([2]; 293.15 K): 1.4176 ± 0.0014 | refractive index ([2]; 298.15 K): 1.4156 ± 0.0014 | refractive index ([2]; 303.15 K): 1.4136 ± 0.0014 | refractive index ([2]; 308.15 K): 1.4117 ± 0.0014 | refractive index ([2]; 313.15 K): 1.4097 ± 0.0014 | refractive index ([2]; 318.15 K): 1.4078 ± 0.0014 | refractive index ([2]; 323.15 K): 1.4058 ± 0.0014

CCOC(=O)CCC(=O)OCC [diethyl butanedioate]
viscosity ([3]; 288.15 K): 3.195 ± 0.03 mPa·s | mass density ([3]; 288.15 K): 1044.83 ± 0.84 kg/m3 | viscosity ([3]; 293.15 K): 2.807 ± 0.027 mPa·s | mass density ([3]; 293.15 K): 1039.63 ± 0.83 kg/m3 | viscosity ([3]; 298.15 K): 2.491 ± 0.024 mPa·s | mass density ([3]; 298.15 K): 1034.44 ± 0.83 kg/m3 | viscosity ([3]; 303.15 K): 2.229 ± 0.022 mPa·s | mass density ([3]; 303.15 K): 1029.25 ± 0.83 kg/m3 | viscosity ([3]; 308.15 K): 2.008 ± 0.02 mPa·s | mass density ([3]; 308.15 K): 1024.08 ± 0.83 kg/m3 | viscosity ([3]; 313.15 K): 1.821 ± 0.018 mPa·s | mass density ([3]; 313.15 K): 1018.9 ± 0.83 kg/m3 | viscosity ([3]; 318.15 K): 1.66 ± 0.017 mPa·s | mass density ([3]; 318.15 K): 1013.72 ± 0.83 kg/m3 | viscosity ([3]; 323.15 K): 1.523 ± 0.015 mPa·s | mass density ([3]; 323.15 K): 1008.55 ± 0.83 kg/m3 | refractive index ([4]; 288.15 K): 1.4217 ± 0.0014 | refractive index ([4]; 293.15 K): 1.4195 ± 0.0014 | refractive index ([4]; 298.15 K): 1.4173 ± 0.0014 | refractive index ([4]; 303.15 K): 1.4151 ± 0.0014 | refractive index ([4]; 308.15 K): 1.4129 ± 0.0014 | refractive index ([4]; 313.15 K): 1.4108 ± 0.0014 | refractive index ([4]; 318.15 K): 1.4088 ± 0.0014 | refractive index ([4]; 323.15 K): 1.4067 ± 0.0014

CCCCO [butan-1-ol] + CCOC(=O)CCC(=O)OCC
viscosity ([1]; 288.15 K): 3.365 ± 0.028 mPa·s | mass density ([1]; 288.15 K): 813.46 ± 0.81 kg/m3 | viscosity ([1]; 293.15 K): 2.913 ± 0.025 mPa·s | mass density ([1]; 293.15 K): 809.66 ± 0.81 kg/m3 | viscosity ([1]; 298.15 K): 2.563 ± 0.022 mPa·s | mass density ([1]; 298.15 K): 805.84 ± 0.81 kg/m3 | viscosity ([1]; 303.15 K): 2.257 ± 0.019 mPa·s | mass density ([1]; 303.15 K): 801.99 ± 0.81 kg/m3 | viscosity ([1]; 308.15 K): 1.994 ± 0.017 mPa·s | mass density ([1]; 308.15 K): 798.12 ± 0.81 kg/m3 | viscosity ([1]; 313.15 K): 1.779 ± 0.016 mPa·s | mass density ([1]; 313.15 K): 794.22 ± 0.81 kg/m3 | viscosity ([1]; 318.15 K): 1.576 ± 0.014 mPa·s | mass density ([1]; 318.15 K): 790.28 ± 0.81 kg/m3 | viscosity ([1]; 323.15 K): 1.422 ± 0.013 mPa·s | mass density ([1]; 323.15 K): 786.29 ± 0.81 kg/m3 | refractive index ([2]; 288.15 K): 1.4012 ± 0.0014 | refractive index ([2]; 293.15 K): 1.3992 ± 0.0014 | refractive index ([2]; 298.15 K): 1.3972 ± 0.0014 | refractive index ([2]; 303.15 K): 1.3951 ± 0.0014 | refractive index ([2]; 308.15 K): 1.393 ± 0.0014 | refractive index ([2]; 313.15 K): 1.391 ± 0.0014 | refractive index ([2]; 318.15 K): 1.3889 ± 0.0014 | refractive index ([2]; 323.15 K): 1.3867 ± 0.0014

CCCO [propan-1-ol] + CCOC(=O)CCC(=O)OCC
viscosity ([1]; 288.15 K): 2.514 ± 0.022 mPa·s | mass density ([1]; 288.15 K): 807.75 ± 0.81 kg/m3 | viscosity ([1]; 293.15 K): 2.208 ± 0.019 mPa·s | mass density ([1]; 293.15 K): 803.77 ± 0.81 kg/m3 | viscosity ([1]; 298.15 K): 1.95 ± 0.017 mPa·s | mass density ([1]; 298.15 K): 799.76 ± 0.81 kg/m3 | viscosity ([1]; 303.15 K): 1.727 ± 0.015 mPa·s | mass density ([1]; 303.15 K): 795.72 ± 0.81 kg/m3 | viscosity ([1]; 308.15 K): 1.542 ± 0.014 mPa·s | mass density ([1]; 308.15 K): 791.64 ± 0.81 kg/m3 | viscosity ([1]; 313.15 K): 1.378 ± 0.013 mPa·s | mass density ([1]; 313.15 K): 787.52 ± 0.81 kg/m3 | viscosity ([1]; 318.15 K): 1.236 ± 0.012 mPa·s | mass density ([1]; 318.15 K): 783.36 ± 0.81 kg/m3 | viscosity ([1]; 323.15 K): 1.124 ± 0.011 mPa·s | mass density ([1]; 323.15 K): 779.14 ± 0.81 kg/m3 | refractive index ([2]; 288.15 K): 1.3875 ± 0.0014 | refractive index ([2]; 293.15 K): 1.3854 ± 0.0014 | refractive index ([2]; 298.15 K): 1.3834 ± 0.0014 | refractive index ([2]; 303.15 K): 1.3814 ± 0.0014 | refractive index ([2]; 308.15 K): 1.3792 ± 0.0014 | refractive index ([2]; 313.15 K): 1.377 ± 0.0014 | refractive index ([2]; 318.15 K): 1.3748 ± 0.0014 | refractive index ([2]; 323.15 K): 1.3726 ± 0.0014
